Source: ChEMBL document CHEMBL1154382, “Preliminary SAR analysis of novel antiproliferative N(6),5'-bis-ureidoadenosine derivatives” (2009)

Columns and labels:
Format in all cases: functional
NCI-H522 [1] = assay: Antiproliferative activity against human NCI-H522 cells
SK-MEL-28 = assay: Antiproliferative activity against human SK-MEL-28 cells
TK-10 = assay: Antiproliferative activity against human TK10 cells
SN12C = assay: Antiproliferative activity against human SN12C cells
T47D [2] = assay: Antiproliferative activity against human T47D cells at 10 uM assessed as cell growth inhibition relative to control; conditions: values are per cent of control
OVCAR-3 = assay: Antiproliferative activity against human OVCAR-3 cells at 10 uM assessed as cell growth inhibition relative to control; conditions: values are per cent of control
CAKI-1 = assay: Antiproliferative activity against human Caki1 cells at 10 uM assessed as cell growth inhibition relative to control; conditions: values are per cent of control
RXF 393 = assay: Antiproliferative activity against human RXF393 cells at 10 uM assessed as cell growth inhibition relative to control; conditions: values are per cent of control
HL-60(TB) = assay: Antiproliferative activity against human HL-60(TB) cells
HOP-62 [3] = assay: Antiproliferative activity against human HOP62 cells
DU-145 [4] = assay: Antiproliferative activity against human DU145 cells
DU-145 [5] = assay: Antiproliferative activity against human DU145 cells at 10 uM assessed as cell growth inhibition relative to control; conditions: values are per cent of control
A549 = assay: Antiproliferative activity against human A549 cells
HT-29 = assay: Antiproliferative activity against human HT-29 cells at 10 uM assessed as cell growth inhibition relative to control; conditions: values are per cent of control
PC-3 [6] = assay: Antiproliferative activity against human PC3 cells
Malme-3M = assay: Antiproliferative activity against human MALME-3M cells
HCT-15 = assay: Antiproliferative activity against human HCT15 cells
OVCAR-5 = assay: Antiproliferative activity against human OVCAR5 cells at 10 uM assessed as cell growth inhibition relative to control; conditions: values are per cent of control
MCF7 [7] = assay: Antiproliferative activity against human MCF7 cells at 10 uM assessed as cell growth inhibition relative to control; conditions: values are per cent of control
SK-MEL-5 = assay: Antiproliferative activity against human SK-MEL-5 cells
OVCAR-4 [8] = assay: Antiproliferative activity against human OVCAR4 cells at 10 uM assessed as cell growth inhibition relative to control; conditions: values are per cent of control
K562 = assay: Antiproliferative activity against human K562 cells at 10 uM assessed as cell growth inhibition relative to control; conditions: values are per cent of control
A498 [9] = assay: Antiproliferative activity against human A498 cells at 10 uM assessed as cell growth inhibition relative to control; conditions: values are per cent of control
SK-MEL-2 = assay: Antiproliferative activity against human SK-MEL-2 cells at 10 uM assessed as cell growth inhibition relative to control; conditions: values are per cent of control
T47D [10] = assay: Antiproliferative activity against human T47D cells
BT-549 [11] = assay: Antiproliferative activity against human BT549 cells
HOP-62 [12] = assay: Antiproliferative activity against human HOP62 cells at 10 uM assessed as cell growth inhibition relative to control; conditions: values are per cent of control
NCI-H460 [13] = assay: Antiproliferative activity against human NCI-H460 cells
M14 = assay: Antiproliferative activity against human M14 cells at 10 uM assessed as cell growth inhibition relative to control; conditions: values are per cent of control
MDA-MB-468 = assay: Antiproliferative activity against human MDA-MB-468 cells at 10 uM assessed as cell growth inhibition relative to control; conditions: values are per cent of control
[14] = Antiproliferative activity against human Hs 578T cells at 10 uM assessed as cell growth inhibition relative to control; conditions: values are per cent of control
OVCAR-8 = assay: Antiproliferative activity against human OVCAR8 cells
NCI-H23 = assay: Antiproliferative activity against human NCI-H23 cells
OVCAR-4 [15] = assay: Antiproliferative activity against human OVCAR4 cells
MDA-MB-231 = assay: Antiproliferative activity against human MDA-MB-231 cells at 10 uM assessed as cell growth inhibition relative to control; conditions: values are per cent of control
CCRF-CEM = assay: Antiproliferative activity against human CCRF-CEM cells at 10 uM assessed as cell growth inhibition relative to control; conditions: values are per cent of control
SNB-19 = assay: Antiproliferative activity against human SNB19 cells
SW-620 = assay: Antiproliferative activity against human SW620 cells at 10 uM assessed as cell growth inhibition relative to control; conditions: values are per cent of control
EKVX = assay: Antiproliferative activity against human EKVX cells
A498 [16] = assay: Antiproliferative activity against human A498 cells
SF-539 = assay: Antiproliferative activity against human SF539 cells at 10 uM assessed as cell growth inhibition relative to control; conditions: values are per cent of control
SNB-75 = assay: Antiproliferative activity against human SNB75 cells at 10 uM assessed as cell growth inhibition relative to control; conditions: values are per cent of control
KM12 [17] = assay: Antiproliferative activity against human KM12 cells
U-251 = assay: Antiproliferative activity against human U251 cells at 10 uM assessed as cell growth inhibition relative to control; conditions: values are per cent of control
COLO 205 = assay: Antiproliferative activity against human COLO205 cells at 10 uM assessed as cell growth inhibition relative to control; conditions: values are per cent of control
HCT-116 = assay: Antiproliferative activity against human HCT116 cells at 10 uM assessed as cell growth inhibition relative to control; conditions: values are per cent of control
SF-268 = assay: Antiproliferative activity against human SF268 cells at 10 uM assessed as cell growth inhibition relative to control; conditions: values are per cent of control
LOX IMVI = assay: Antiproliferative activity against human LOXIMVI cells
PC-3 [18] = assay: Antiproliferative activity against human PC3 cells at 10 uM assessed as cell growth inhibition relative to control; conditions: values are per cent of control
IGROV-1 = assay: Antiproliferative activity against human IGROV1 cells
SF-295 [19] = assay: Antiproliferative activity against human SF295 cells at 10 uM assessed as cell growth inhibition relative to control; conditions: values are per cent of control
NCI-H522 [20] = assay: Antiproliferative activity against human NCI-H522 cells at 10 uM assessed as cell growth inhibition relative to control; conditions: values are per cent of control
SF-295 [21] = assay: Antiproliferative activity against human SF295 cells
NCI-H460 [22] = assay: Antiproliferative activity against human NCI-H460 cells at 10 uM assessed as cell growth inhibition relative to control; conditions: values are per cent of control
MCF7 [23] = assay: Antiproliferative activity against human MCF7 cells
UACC-257 = assay: Antiproliferative activity against human UACC257 cells at 10 uM assessed as cell growth inhibition relative to control; conditions: values are per cent of control
NCI-H322M = assay: Antiproliferative activity against human NCI-H322M cells at 10 uM assessed as cell growth inhibition relative to control; conditions: values are per cent of control
BT-549 [24] = assay: Antiproliferative activity against human BT549 cells at 10 uM assessed as cell growth inhibition relative to control; conditions: values are per cent of control
HOP-92 = assay: Antiproliferative activity against human HOP92 cells at 10 uM assessed as cell growth inhibition relative to control; conditions: values are per cent of control
KM12 [25] = assay: Antiproliferative activity against human KM12 cells at 10 uM assessed as cell growth inhibition relative to control; conditions: values are per cent of control

Question: For `CCOC(=O)C[C@H]1[C@@H](O[Si](C)(C)C(C)(C)C)[C@H](n2cnc3c(NC(=O)Nc4ccccc4)ncnc32)O[C@@H]1COC(=O)NC`, which GI50 (NCI-H522 [1]) is on record?
Answer: 9.58 µM

Question: And the GI50 (SK-MEL-28)?
Answer: 7.77 µM

Question: And the GI50 (TK-10)?
Answer: 10.7 µM

Question: What about the GI50 (SN12C) of the same compound?
Answer: 2.17 µM

Question: What about the growth, % of control at 10 µM (T47D [2]) of the same compound?
Answer: 29%

Question: What about the growth, % of control at 10 µM (OVCAR-3) of the same compound?
Answer: 51%

Question: What about the growth, % of control at 10 µM (CAKI-1) of the same compound?
Answer: 61%

Question: And the growth, % of control at 10 µM (RXF 393)?
Answer: 35%

Question: And the GI50 (HL-60(TB))?
Answer: 0.00139 µM

Question: And the GI50 (HOP-62 [3])?
Answer: 14.7 µM

Question: And the GI50 (DU-145 [4])?
Answer: 5.21 µM

Question: And the growth, % of control at 10 µM (DU-145 [5])?
Answer: 59%

Question: What about the GI50 (A549) of the same compound?
Answer: 6.93 µM

Question: What about the growth, % of control at 10 µM (HT-29) of the same compound?
Answer: 9%

Question: And the GI50 (PC-3 [6])?
Answer: 2.87 µM

Question: What about the GI50 (Malme-3M) of the same compound?
Answer: 3.34 µM

Question: And the GI50 (HCT-15)?
Answer: 11.7 µM

Question: And the growth, % of control at 10 µM (OVCAR-5)?
Answer: 94%

Question: What about the growth, % of control at 10 µM (MCF7 [7]) of the same compound?
Answer: 12%

Question: What about the GI50 (SK-MEL-5) of the same compound?
Answer: 5.7 µM

Question: What about the growth, % of control at 10 µM (OVCAR-4 [8]) of the same compound?
Answer: 42%

Question: What about the growth, % of control at 10 µM (K562) of the same compound?
Answer: 23%

Question: What about the growth, % of control at 10 µM (A498 [9]) of the same compound?
Answer: 77%

Question: What about the growth, % of control at 10 µM (SK-MEL-2) of the same compound?
Answer: 60%

Question: What about the GI50 (T47D [10]) of the same compound?
Answer: 4.95 µM

Question: And the GI50 (BT-549 [11])?
Answer: 2.07 µM

Question: And the growth, % of control at 10 µM (HOP-62 [12])?
Answer: 77%

Question: What about the GI50 (NCI-H460 [13]) of the same compound?
Answer: 4.45 µM

Question: And the growth, % of control at 10 µM (M14)?
Answer: 57%

Question: What about the growth, % of control at 10 µM (MDA-MB-468) of the same compound?
Answer: 62%

Question: And the growth, % of control at 10 µM [14]?
Answer: 57%

Question: What about the GI50 (OVCAR-8) of the same compound?
Answer: 10.3 µM

Question: What about the GI50 (NCI-H23) of the same compound?
Answer: 12.9 µM

Question: And the GI50 (OVCAR-4 [15])?
Answer: 10.7 µM

Question: What about the growth, % of control at 10 µM (MDA-MB-231) of the same compound?
Answer: 72%

Question: What about the growth, % of control at 10 µM (CCRF-CEM) of the same compound?
Answer: 57%

Question: What about the GI50 (SNB-19) of the same compound?
Answer: 49.2 µM

Question: And the growth, % of control at 10 µM (SW-620)?
Answer: 72%

Question: What about the GI50 (EKVX) of the same compound?
Answer: 3.39 µM

Question: And the GI50 (A498 [16])?
Answer: 4.65 µM

Question: And the growth, % of control at 10 µM (SF-539)?
Answer: 33%

Question: What about the growth, % of control at 10 µM (SNB-75) of the same compound?
Answer: 45%

Question: And the GI50 (KM12 [17])?
Answer: 3.21 µM

Question: What about the growth, % of control at 10 µM (U-251) of the same compound?
Answer: 52%

Question: And the growth, % of control at 10 µM (COLO 205)?
Answer: 67%

Question: And the growth, % of control at 10 µM (HCT-116)?
Answer: 17%

Question: What about the growth, % of control at 10 µM (SF-268) of the same compound?
Answer: 60%

Question: And the GI50 (LOX IMVI)?
Answer: 7.78 µM

Question: And the growth, % of control at 10 µM (PC-3 [18])?
Answer: 32%

Question: And the GI50 (IGROV-1)?
Answer: 13.7 µM

Question: And the growth, % of control at 10 µM (SF-295 [19])?
Answer: 66%

Question: What about the growth, % of control at 10 µM (NCI-H522 [20]) of the same compound?
Answer: 45%

Question: What about the GI50 (SF-295 [21]) of the same compound?
Answer: 2.83 µM

Question: And the growth, % of control at 10 µM (NCI-H460 [22])?
Answer: 13%

Question: And the GI50 (MCF7 [23])?
Answer: 3.37 µM

Question: And the growth, % of control at 10 µM (UACC-257)?
Answer: 60%

Question: And the growth, % of control at 10 µM (NCI-H322M)?
Answer: 91%

Question: And the growth, % of control at 10 µM (BT-549 [24])?
Answer: 65%

Question: What about the growth, % of control at 10 µM (HOP-92) of the same compound?
Answer: 62%

Question: What about the growth, % of control at 10 µM (KM12 [25]) of the same compound?
Answer: 31%
